Results from patent publication US20250265710A1, “NON-INVASIVE LASER SPECKLE IMAGING OF EXTRA-EMBRYONIC BLOOD VESSELS” (California Institute of Technology, priority 2024, published 2025).
Where two headings read alike, the source gives them in different places.

Tested on: chick embryonic heart
Experimental: These drugs were injected through the shell ventral to chick embryos at a developmental HH stage between HH16-19. The needle was guided to the embryos by the LLSCI system in live view mode.
In one example, before imaging, the eggs are injected with a drug by implementing a live view mode to ascertain the position of the embryo's heart and inserted a needle into the eggshell and the drug was injected into the area ventral to the embryo in a volume of 25-150 μL. This may result in a hole in the eggshell having a diameter between 0.6 and 0.8 mm. The hole can be covered by transparent tape to ensure the continued development of the embryo. After injection, the egg may be placed in an incubator (e.g., incubator 440 in FIG. 4) and imaged at regular intervals using a GUI (e.g., GUI 487 in FIG. 4). FIG. 22 is a schematic representation of a procedure for using LSCI imaging to determine the location of avian embryos for injection, according to an embodiment.
FIG. 23A depicts images of extraembryonic blood vessels of the control egg generated by the LSCI system 400 in FIG. 4 and images (frames) of a movie showing the dynamics of the blood vessels at time=3 minutes, time=34 minutes, time=73 minutes, time=129 minutes, time=250 minutes, and time=270 minutes. FIG. 23A also includes a time trace of BFI at these times. The time trace of the BFI is indicative of heart rate.
To quantify and characterize the effects of injecting a drug solution onto the CAM, an LSCI system was used to extract four features from the blood vessels images and blood flow graphs. FIG. 24 depicts examples of extraembryonic blood vessel images 2410, 2420 before and after feature extraction, and a heartbeat signal, according to embodiments. Blood vessel skeleton, branches, and the size of the CAM visualized. […] The LSCI system implemented the LSCI process 1400 shown in FIG. 14 to extract the features.
In various examples, the length of the blood vessels may be calculated as the total length of the vessel skeleton in the blood vessel image. In various examples, the number of branches may be determined by counting the branch points connecting the blood vessels and isolated vessel segments in the blood vessel images. In various examples, the vessel area may be obtained by calculating the area of the CAM in the blood vessel image. In various examples, the heart rate may be measured from the Fourier transform of the blood flow signal.
Tests were also performed on five eggs for each of the two Amlodipine concentrations. […] FIG. 25B includes a plot of heart rate 2530, a plot of length of blood vessels 2532, a plot of the number of branches 2540, and a plot of the size of the area vaculosa (AV) 2542 for test eggs injected with two different Amlodipine concentrations, according to embodiments.

Structure (SMILES)	embryo viability (higher doses >60 nmol)	time to heart rate nadir (higher doses >60 nmol) [min]	embryo development when incubated 7 days after the experiment (lowest dose tested (<50 nmol))	time after injection without begin of return of heart rate to normal levels (higher doses above 5 nmol) [min]	time to heart rate nadir (higher doses above 5 nmol) [min]	period over which heart rate dropped (low doses around 3 nmol) [min]	heart rate an hour after injection (one egg, 50 μL solution with 3 nmole) [bpm]	heart rate after injection (one egg, 50 μL solution with 3 nmole, dropped from 132 bpm pre-injection) [bpm]
CCOC(=O)C1=C(COCCN)NC(C)=C(C(=O)OC)C1c1ccccc1Cl (centres unmarked) [Amlodipine]	embryo died at the time of injection, or its later development was heavily compromised	20	developed normally	–	–	–	–	–
COC(=O)C1=C(C)NC(C)=C(C(=O)OC)C1c1ccccc1[N+](=O)[O-] [Nifedipine]	–	–	–	> 100	20	40	100	94
